Measured values published in US20040200144A1, “Plant growth regulator and a method of producing the regulator” (Dainichiseika Color & Chemicals Mfg. Co., Ltd., priority 2003, published 2004).

Tests used:
Format in all cases: in vivo
Poinsettia young plants = assay: Dwarfing test of poinsettia young plant; details: for Plant Height / Dwarfing Rate: 100 ml per pot to nursery soil on 49th and 78th days, measured 93rd day; for Dwarfing Rate: vs comparative group
Protocol: 18.4 g of potassium hydroxide was dissolved in 400 ml of distilled water at 20° C., 50 g of cinnamic acid was added to the potassium hydroxide solution and dissolved by stirring, the resultant solution was diluted with distilled water until the total volume of solution was 500 ml, and thus a cinnamic acid aqueous solution (pH 8.8) was prepared in a concentration of 10%. The aqueous solution was further diluted with distilled water 33.3 times or 20 times, and thus a cinnamic acid aqueous solution in a concentration of 0.3% or 0.5% was prepared, respectively.
Poinsettia young plants with heights of about 10 cm were planted and fixed in pots (diameter of 14.5 cm and depth of 14.5 cm), and cultivated continuously. On the 49th and 78th days, 100 ml of 0.3% or 0.5% cinnamic acid aqueous solution prepared as described above was added to the nursery soil of each of 30 pots, and thus 0.3% cinnamic acid aqueous solution addition group and 0.5% cinnamic acid aqueous solution addition group were obtained. Further, 30 pots were prepared as a comparative group on which general watering was performed. The cultivation of young plants of each group was continued. On the 93rd day, the length from a surface of the soil of each cultivation pot to a head portion of the poinsettia young plant was measured, the dwarfing rate (%) was calculated using the following equation, and thus the dwarfing effect of cinnamic acid aqueous solution was examined (the same way was applied to following examples).
Dwarfing rate (%)=[(the plant height of the comparative group)−(the plant height of an addition group)/the plant height of the comparative group]×100
In addition, “plant height” in all the tables below was an average of heights from a surface of the soil of a pot used in each test to a head portion of the plant.

broccoli young plants = assay: Dwarfing test of broccoli young plant; details: for Plant Height / Dwarfing Rate: 5 ml per cell on 4th day, measured 20th day; for Dwarfing Rate: vs comparative group
Protocol: (§1) 50 g of sodium tripolyphosphate was dissolved in 400 ml of distilled water at 80° C., 17.5 g of cinnamic acid was added to the sodium tripolyphosphate solution and dissolved by stirring, the resultant solution was diluted with distilled water until the total volume of solution was 500 ml, and thus 3.5% cinnamic acid aqueous solution (pH 6.5) was prepared. The aqueous solution was further diluted with distilled water 70 times or 17.5 times, and 0.05% cinnamic acid aqueous solution and 0.2% cinnamic acid aqueous solution were prepared, respectively.
(§2) Nursery soil for house use was filled into paper joint pots (each with 24 cells: 34×43×50 mm/cell), water was sufficiently given to the soil, and seeds of carrots were sowed. After seeding, the pot was placed in the same greenhouse as described above to sprout. Subsequently, on the 5th day, the cinnamic aqueous acid solutions were added to the nursery soil in the joint pots. One of the joint pots (24 cells) was prepared as a 0.05% cinnamic acid aqueous solution addition group, and 5 ml of the 0.05% cinnamic acid aqueous solution was added to the nursery soil of each cell. Another one of the join pots was prepared as a 0.2% cinnamic acid aqueous solution addition group, and 5 ml of the 0.2% cinnamic acid aqueous solution was added to the nursery soil of each cell. The other one of the joint pots was prepared as a comparative group in which 5 ml of water is added to each cell, instead of the cinnamic acid aqueous solution. Subsequently, the cultivation of carrot young plants in each group was continued under general conditions. On the 27th day, the heights of young plants in each group were measured, the dwarfing rate (%) was calculated, and the dwarfing effect of cinnamic acid aqueous solution on carrot young plants was examined. […].
In the same way as in Example 12 except that seeds of broccoli were sowed, the dwarfing effect of cinnamic acid aqueous solution on broccoli young plants was examined. […]

tomato young plants = assay: Dwarfing test of tomato young plant; details: for Plant Height / Dwarfing Rate: 5 ml per cell on 7th day, measured 20th day; for Dwarfing Rate: vs comparative group
Protocol: as §1, §2
In the same way as in Example 12 except that seeds of tomato were sowed, and that the cinnamic acid solutions were added to the nursery soil of the joint pot on the 7th day, the dwarfing effect of cinnamic acid aqueous solution on tomato young plants was examined. […]

hydrangea young plants = assay: Dwarfing test of hydrangea young plant; details: for Plant Height / Dwarfing Rate: 100 ml per pot on 42nd day, measured 72nd day; for Dwarfing Rate: vs comparative group
Protocol: Dwarfing rate (%)=[(the plant height of the comparative group)−(the plant height of an addition group)/the plant height of the comparative group]×100 […] A cutting of a fresh shoot of hydrangea was planted in the soil of each pot (diameter of 10.5 cm and depth of 8.5 cm) and cultivated continuously after the cuttage. On the 42nd day, top pinching was performed, a young plant was adjusted to have a height of 8 cm and four leaves and planted and fixed in a pot (diameter of 14.5 cm and depth of 14.5 cm) At this point, 100 ml of 0.2% or 0.4% cinnamic acid aqueous solution prepared as described above was added to the nursery soil of 8 pots, and thus 0.2% cinnamic acid aqueous solution addition group and 0.4% cinnamic acid aqueous solution addition group were prepared. Further, 8 pots were prepared as a comparative group on which general watering was performed. The cultivation of young plants of each group was continued. On the 72nd day, heights of young plants in each group were measured, the dwarfing rate (%) was calculated, and the dwarfing effect of cinnamic acid aqueous solution on hydrangea was examined. From the results in Table 26, it became evident that the cinnamic acid solutions are effective in dwarfing hydrangea young plants.

## O=C(O)C=Cc1ccccc1 [cinnamic acid]
Poinsettia young plants; 0.3% aqueous solution
  Plant Height: 19.2 cm
  Dwarfing Rate: 17.6%
Poinsettia young plants; 0.5% aqueous solution
  Plant Height: 18.1 cm
  Dwarfing Rate: 22.3%
Poinsettia young plants; poinsettia young plants, 0.3% and 0.5% aqueous solutions
  dwarfing effect: effective
Broccoli young plants; 0.05% aqueous solution
  Plant Height: 8.8 cm
  Dwarfing Rate: 6.4%
Broccoli young plants; 0.2% aqueous solution
  Plant Height: 6.4 cm
  Dwarfing Rate: 31.9%
Broccoli young plants; broccoli young plants, 0.05% and 0.2% aqueous solutions
  dwarfing effect: effective
Tomato young plants; 0.05% aqueous solution
  Plant Height: 7.3 cm
  Dwarfing Rate: 20.7%
Tomato young plants; 0.2% aqueous solution
  Plant Height: 6.1 cm
  Dwarfing Rate: 33.7%
Tomato young plants; tomato young plants, 0.05% and 0.2% aqueous solutions
  dwarfing effect: effective
Hydrangea young plants; 0.2% aqueous solution
  Plant Height: 15.1 cm
  Dwarfing Rate: 2.6%
Hydrangea young plants; 0.4% aqueous solution
  Plant Height: 11.7 cm
  Dwarfing Rate: 24.5%
Hydrangea young plants; hydrangea young plants, 0.2% and 0.4% aqueous solutions
  dwarfing effect: effective
